Assay results reported in paper PMC3893826 (Journal of medicinal chemistry, 2010).

Columns and labels:
[1] = biological target: Human mTORC1 complex (Homo sapiens, UniProt P42345); assay: In vitro mTORC1 kinase assay; assay type: biochemical
[2] = biological target: mTOR (Mus musculus, UniProt Q9JLN9); assay type: cell-based

SMILES | IC50 [1] [nM] | IC50 [2] [nM] | EC50 [2] [nM] | improved mTOR cellular potency compared to screening hit compound 1 ([2]; relative to compound 1) [fold] | improvement in cellular potency, 7 versus 8 ([2]; relative to compound 8) [fold]
COCCC(=O)N1CCN(c2ccc(Nc3ccnc4ccc(-c5cnc6ccccc6c5)cc34)cc2C(F)(F)F)CC1 [Compound 16] | 82.6 | 40 | – | – | –
CC(=O)N1CCN(c2ccc(-n3c(=O)ccc4cnc5ccc(-c6cnc7ccccc7c6)cc5c43)cc2C(F)(F)F)CC1 [Compound 7, 1-(4-(4-acetylpiperazin-1-yl)-3-(trifluoromethyl)phenyl)-9-(quinolin-3-yl)benzo[h][1,6]naphthyridin-2(1H)-one] | – | – | 3 | 1000 | 13
